ChEMBL document CHEMBL1158969, “Studies on the synthesis of sesquiterpene lactones, 12. Synthesis of (+)-colartin, (+)-arbusculin A, and their C-4 epimers and their biological activities” (1991)
Calls of active or inactive are those of the source.

Legend:
Type in all cases: functional, organism-based
Cucumis sativus [1] = test: Growth regulatory activity on Cucumis sativus root assessed as inhibition of germination and seedling growth at 500 ppm after 10 days
Cucumis sativus [2] = test: Growth regulatory activity on Cucumis sativus stem assessed as complete inhibition of germination and seedling growth at 1000 ppm after 10 days
Echinochloa frumentacea [3] = test: Growth regulatory activity on Echinochloa frumentacea root assessed as inhibition of germination and seedling growth at 1000 ppm after 10 days
Cucumis sativus [4] = test: Growth regulatory activity on Cucumis sativus stem assessed as inhibition of germination and seedling growth at 500 ppm after 10 days
Brassica juncea [5] = test: Growth regulatory activity on Brassica juncea root assessed as inhibition of germination and seedling growth at 1000 ppm after 10 days
Cucumis sativus [6] = test: Growth regulatory activity on Cucumis sativus root assessed as complete inhibition of germination and seedling growth at 1000 ppm after 10 days
Echinochloa frumentacea [7] = test: Growth regulatory activity on Echinochloa frumentacea stem assessed as inhibition of germination and seedling growth at 500 ppm after 10 days
Echinochloa frumentacea [8] = test: Growth regulatory activity on Echinochloa frumentacea stem assessed as inhibition of germination and seedling growth at 1000 ppm after 10 days
Cucumis sativus [9] = test: Growth regulatory activity on Cucumis sativus root assessed as inhibition of germination and seedling growth at 250 ppm after 10 days
Echinochloa frumentacea [10] = test: Growth regulatory activity on Echinochloa frumentacea root assessed as complete inhibition of germination and seedling growth at 1000 ppm after 10 days
Brassica juncea [11] = test: Growth regulatory activity on Brassica juncea stem assessed as complete inhibition of germination and seedling growth at 1000 ppm after 10 days
Cucumis sativus [12] = test: Growth regulatory activity on Cucumis sativus stem assessed as inhibition of germination and seedling growth at 1000 ppm after 10 days
Echinochloa frumentacea [13] = test: Growth regulatory activity on Echinochloa frumentacea stem assessed as complete inhibition of germination and seedling growth at 1000 ppm after 10 days
Echinochloa frumentacea [14] = test: Growth regulatory activity on Echinochloa frumentacea root assessed as inhibition of germination and seedling growth at 500 ppm after 10 days
Cucumis sativus [15] = test: Growth regulatory activity on Cucumis sativus root assessed as complete inhibition of germination and seedling growth at 500 ppm after 10 days
Brassica juncea [16] = test: Growth regulatory activity on Brassica juncea root assessed as inhibition of germination and seedling growth at 500 ppm after 10 days
Cucumis sativus [17] = test: Growth regulatory activity on Cucumis sativus stem assessed as inhibition of germination and seedling growth at 250 ppm after 10 days
Cucumis sativus [18] = test: Growth regulatory activity on Cucumis sativus root assessed as inhibition of germination and seedling growth at 1000 ppm after 10 days
Cucumis sativus [19] = test: Growth regulatory activity on Cucumis sativus stem assessed as inhibition of germination and seedling growth at 100 ppm after 10 days
Brassica juncea [20] = test: Growth regulatory activity on Brassica juncea stem assessed as complete inhibition of germination and seedling growth at 500 ppm after 10 days
Cucumis sativus [21] = test: Growth regulatory activity on Cucumis sativus root assessed as inhibition of germination and seedling growth at 100 ppm after 10 days
Brassica juncea [22] = test: Growth regulatory activity on Brassica juncea stem assessed as inhibition of germination and seedling growth at 250 ppm after 10 days
Brassica juncea [23] = test: Growth regulatory activity on Brassica juncea root assessed as complete inhibition of germination and seedling growth at 1000 ppm after 10 days
Cucumis sativus [24] = test: Growth regulatory activity on Cucumis sativus stem assessed as complete inhibition of germination and seedling growth at 500 ppm after 10 days
Brassica juncea [25] = test: Growth regulatory activity on Brassica juncea root assessed as complete inhibition of germination and seedling growth at 500 ppm after 10 days
Brassica juncea [26] = test: Growth regulatory activity on Brassica juncea root assessed as inhibition of germination and seedling growth at 250 ppm after 10 days
Brassica juncea [27] = test: Growth regulatory activity on Brassica juncea stem assessed as inhibition of germination and seedling growth at 1000 ppm after 10 days

Measured: growth inhibition (GI)

C[C@@H]1C(=O)O[C@H]2[C@H]1CC[C@@]1(C)CC[C@@H](O)[C@@](C)(O)[C@H]21
active: Cucumis sativus [1] | Cucumis sativus [2] | Echinochloa frumentacea [3] | Cucumis sativus [4] | Brassica juncea [5] | Cucumis sativus [6] | Echinochloa frumentacea [7] | Echinochloa frumentacea [8]

C[C@@H]1C(=O)O[C@H]2[C@H]1CC[C@@]1(C)CCC[C@@](C)(O)[C@H]21
active: Cucumis sativus [9] | Echinochloa frumentacea [10] | Brassica juncea [11] | Cucumis sativus [12] | Cucumis sativus [4] | Echinochloa frumentacea [13] | Echinochloa frumentacea [14] | Cucumis sativus [15] | Brassica juncea [16] | Cucumis sativus [17] | Cucumis sativus [6] | Echinochloa frumentacea [7]

CC1=CCC[C@]2(C)CC[C@@H]3[C@H](OC(=O)[C@H]3C)[C@@H]12
active: Cucumis sativus [1] | Cucumis sativus [18]

C=C1C(=O)O[C@@H]2[C@@H]3[C@](C)(CCC[C@@]3(C)O)CC[C@@H]12
not listed: Cucumis sativus [1] | Cucumis sativus [2] | Echinochloa frumentacea [3] | Cucumis sativus [4] | Brassica juncea [5] | Echinochloa frumentacea [8] | Brassica juncea [16] | Cucumis sativus [17] | Cucumis sativus [18] | Brassica juncea [27]
active: all other assays above

C[C@@H]1C(=O)O[C@H]2[C@H]1CC[C@@]1(C)CC=C[C@@](C)(O)[C@H]21
active: Cucumis sativus [9] | Echinochloa frumentacea [10] | Cucumis sativus [2] | Echinochloa frumentacea [14] | Cucumis sativus [15] | Brassica juncea [16] | Brassica juncea [23] | Cucumis sativus [17] | Cucumis sativus [6] | Brassica juncea [27] | Echinochloa frumentacea [8]
